# In patent US20260345728A1, “COMBINATION THERAPY WITH BRAF INHIBITORS FOR THE TREATMENT OF CANCER” (FUNDACIÓ PRIVADA INSTITUT D'INVESTIGACIÓ ONCOLÒGICA DE VALL …, priority 2023, published 2026):
# Assays:
# melanoma SkMel37 cells = experiment: AlamarBlue cell viability with ZIP synergy scoring (SynergyFinder 3.0), SkMel37; assay type: cell-based, human; details: single agent; 5 days; FIG. 1
# Experimental: A human melanoma cell line with mutations in BRAF (BRAF^V600E) (SkMel37) was used. Cells were plated in 96 well plates and treated on the following day with increasing concentrations of dabrafenib and Omomyc, alone or in combination. After 5 days of treatment, media was removed and AlamarBlue™ Cell Viability Reagent was added to each well, incubated for 3 hours until metabolized, and fluorescence was read with a microplate reader using an excitation between 530-560 and an emission at 590 nm.
# Synergy was evaluated using SynergyFinder 3.0 web application derived from lanevsky A et al. Nucleic Acids Res. 2022; 50(W1):W739-W743.
# Synergy scores can be interpreted as the average excess response due to drug interactions. Synergy scores close to 0 give limited confidence in synergy or antagonism. So, when the synergy scores are: less than −10, the interaction between two drugs is likely to be antagonistic. From −10 to 10, the interaction between two drugs is likely to be additive. Greater than 10, the interaction between two drugs is likely to be synergistic.
# late-stage melanoma = details: cited from earlier work
# mutant BRAF = details: cited from earlier work
# [1] = system: wild type and mutant BRAF metastatic melanoma; details: cited from earlier work
SMILES,reduction of viability of the cells (melanoma SkMel37 cells),tumors that develop resistance to the treatment (late-stage melanoma) [%],selectivity for mutant BRAF (mutant BRAF),"off-target side-effects ([1]; human, in vivo)",clinical activity ([1]; monotherapy or in combination with dacarbazine)
CC(C)(C)c1nc(-c2cccc(NS(=O)(=O)c3c(F)cccc3F)c2F)c(-c2ccnc(N)n2)s1 [dabrafenib],significantly reduces the viability of the cells,20,–,–,–
CNC(=O)c1cc(Oc2ccc(NC(=O)Nc3ccc(Cl)c(C(F)(F)F)c3)cc2)ccn1 [sorafenib],–,–,unable to selectively target mutant BRAF,intolerable off-target side-effects,failed to demonstrate any activity
CCCS(=O)(=O)Nc1ccc(F)c(C(=O)c2c[nH]c3ncc(-c4ccc(Cl)cc4)cc23)c1F [vemurafenib],–,20,–,–,–
